According to patent publication US20100298430A1, “PROPHYLACTIC ANTISTRESS AGENT” (KAO CORPORATION, priority 2005, published 2010):

Assays:
fatigue rats [1] = assay: Weighted swimming test in water immersion central fatigue model rats, administration in drinking water; assay type: in vivo, SD rats; conditions: 0.25% (W/V) in drinking water (370 mg/kg/day), oral; 3 days water immersion; swim on the 4th day with weight 8% of body weight; vs distilled water control
Experimental: A test sample or distilled water used as a control was administered in the form of drinking water to SD rats (male, 6-week-old, n=3 to 6). Thereafter, the rats were bred for 3 days in a cage wherein the water depth had been set at 1.5 cm (23±1° C.) (1 rat/1 cage), so as to produce fatigue rats. It is to be noted that the water in such a cage was exchanged with fresh one every day. At the same time, rats, which had been bred on a common bedding, were defined as normal rats. After completion of the breeding for 3 days, a weight that was 8% of the body weight was attached to the tail portion of each rat on the 4th day, and the rat was then allowed to swim in water of 23° C. The time required until the nose was submerged in water for 10 or more seconds was measured, and the thus measured time was evaluated as a fatigue level caused by central fatigue (chronic fatigue). This model has been known as a central fatigue model (Non-Patent Document 1 and Neurosci. Lett. 352 (2003), 159-162). For the test group, 0.25% (W/V) chlorogenic acid (370 mg/kg/day) was used. For the control group, distilled water was used.

fatigue rats [2] = assay: Weighted swimming test in water immersion load fatigue rats (stress fatigue), intraperitoneal administration; assay type: in vivo, SD rats; conditions: CQA 300 mg/kg intraperitoneally once a day for 5 days; swim on the 6th day with weight 8% of body weight, water of 23° C.; vs normal saline control
Experimental: SD rats (male, 7-week-old, n=4 to 12) were bred for 5 days in a cage wherein the water depth had been set at 1.5 cm (23±1° C.) (1 rat/1 cage), so as to produce fatigue rats. It is to be noted that the water in such a cage was exchanged with fresh one every day. From the first day, a test sample or a normal saline solution used as a control was intraperitoneally administered to the rats once a day. At the same time, rats, which had been bred on a common bedding, were defined as normal rats, and from the first day, a normal saline solution was intraperitoneally administered to them once a day. After completion of the breeding for 5 days, a weight that was 8% of the body weight was attached to the tail portion of each rat on the 6th day, and the rat was then allowed to swim in water of 23° C. The time required until the nose was submerged in water for 10 or more seconds was measured, and the thus measured time was evaluated as a fatigue level caused by stress. For the test group, chlorogenic acid (CQA 300 mg/kg) was used. For the control group, a normal saline solution was used.

O=C(/C=C/c1ccc(O)c(O)c1)O[C@@H]1C[C@](O)(C(=O)O)C[C@@H](O)[C@H]1O [chlorogenic acid] was tested, and the “fatigue level caused by central fatigue (chronic fatigue) (swimming time until the nose was submerged in water for 10 or more seconds)” value (fatigue rats [1]) was “attenuated” and the “fatigue level caused by stress (swimming time until the nose was submerged in water for 10 or more seconds)” value (fatigue rats [2]) was “attenuated”.
